Reference: US9724396B2, “Use of antagonists of growth hormone or growth hormone receptor to prevent or treat stress-sensitive psychiatric illness” (Massachusetts Institute of Technology, priority 2013, dated 2017)

Experiments:
endogenous GH = experiment: Auditory fear conditioning after intra-BLA AAV (GHA or GFP) and 10 days of systemic MK-0677 or saline; type: in vivo, rat; settings: 10 days MK-0677 or saline, tested 48 h after conditioning
Description: (§1) Animals were killed 24 h after the last stress or handling session and the basolateral complex of the amygdala (BLA) was dissected. Growth hormone (GH) levels in the BLA were measured using enzyme-linked immunosorbent assay (ELISA). b) The herpes simplex virus (HSV)-based viral vectors expressing either green fluorescent protein (GFP; CON) or recombinant rat GH (rGH) was infused in the BLA and expression was assessed after behavioral testing was complete. Representative GFP expression from two rats is shown. c) Auditory Pavlovian fear conditioning was performed 3 days after HSV virus infusions. d) Long-term fear memory was assessed by placing the animals in a novel context and measuring conditional freezing following tone presentation 48 h after the conditioning session. e) Short-term BLA cell cultures were used to measure GH release following treatment with a ghrelin receptor agonist (MK) or vehicle (VEH). f) Adeno-associated virus (AAV) constructs were generated to examine the contribution of GH-mediated signaling in the BLA to ghrelin-induced potentiation of fear. g) Following infusion of the AAVs into the BLA and recovery, rats received 10 days of systemic injection of either a ghrelin receptor agonist (MK) or vehicle (VEH). […]

ghrelin receptor = biological target: T1, ghrelin receptor (Rattus norvegicus, UniProt O08725); experiment: GH release from short-term BLA cell cultures after ghrelin receptor stimulation; type: cell-based; settings: versus vehicle
T1 construct: short-term cultures were generated of BLA cells and measured GH protein in the media following treatment with either MK-0677 or vehicle; endogenous in cells; host or cells: short-term cultures of basolateral amygdala (BLA) cells
Description: as §1

GH = settings: Varga et al, Proc. Natl. Acad. Sci. USA 1999; cited from earlier work

T1 sequence (O08725 whole entry): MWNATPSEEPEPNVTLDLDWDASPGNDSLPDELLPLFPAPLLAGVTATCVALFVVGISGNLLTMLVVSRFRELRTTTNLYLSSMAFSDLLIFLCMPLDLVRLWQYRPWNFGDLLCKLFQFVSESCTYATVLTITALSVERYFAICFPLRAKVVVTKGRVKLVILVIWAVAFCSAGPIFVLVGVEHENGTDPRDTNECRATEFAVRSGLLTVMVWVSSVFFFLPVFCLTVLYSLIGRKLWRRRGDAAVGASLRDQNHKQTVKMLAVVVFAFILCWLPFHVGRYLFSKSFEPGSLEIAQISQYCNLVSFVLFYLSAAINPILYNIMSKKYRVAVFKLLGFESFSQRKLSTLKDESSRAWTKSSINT

Row | Compound | long-term auditory fear memory (endogenous GH) | release of GH into the media (ghrelin receptor) | antagonistic activity (GH)
1 | CC(C)(N)C(=O)N[C@H](COCc1ccccc1)C(=O)N1CCC2(CC1)CN(S(C)(=O)=O)c1ccccc12 [MK-0677] | fear-enhancing effects | significantly elevated release of GH | 
2 | [PhAc-Tyr1,DArg2, Phe(4-Cl)6,Arg9,Abu15,Nle27,D-Arg29]hGH-RH(1-29)NH2 [JV-1-10] |  |  | high and or protracted antagonistic activity
3 | [PhAc-Tyr1,DArg2, Phe(4-Cl)6,Arg9,Abu15,Nle27,D-Arg28,Har29]hGH-RH(1-29)NH2 [JV-1-36] |  |  | high and or protracted antagonistic activity
4 | [PhAc-Tyr1,D-Arg2,Phe(4-Cl)6, Har9,Tyr(Me)10,Abu15,Nle27,D-Arg28,Har29]hGH-RH(1-29)NH2 [JV-1-38] |  |  | high and or protracted antagonistic activity
5 | [PhAc-Tyr1,D-Arg2,Phe(4-Cl)6,Abu15,Nle27, D-Arg28,Har29]hGH-RH(1-29)NH2 [MZ-6-55] |  |  | high and or protracted antagonistic activity
